Publication PMC12586598, “A novel long-acting C5a-blocking cyclic peptide prevents sepsis-induced organ dysfunction via effective blockade of the inflammatory cascade” (Signal Transduction and Targeted Therapy, 2025)
Where a SMILES comes first, the peptide text is derived from it.

What was measured:
CLP-induced septic mice [1] = test: Endothelial injury biomarkers and capillary leakage in CLP mice; format: in vivo, mouse; settings: 24 h post-CLP surgery
Experimental: To evaluate microvascular leakage in the murine abdominal cavity, the mice received 100 μg of Cp1 via intravenous administration one hour after CLP surgery. Subsequently, 200 μL of 0.25% (w/v) Evans blue dye was injected intravenously for permeability quantification. Twenty-four hours later, the plasma and peritoneal lavage fluid (PLF) of the mice were collected and subjected to spectrophotometric measurement at 620 nm. To exclude hemoglobin interference, the serum absorbance values were corrected via the following formula: corrected A620 = A620 − (A405 × 0.014).[40] Vascular permeability was quantified by the A620 ratio of PLF to serum. To assess capillary leakage in pulmonary tissues, human plasma albumin (HSA) (1 mg/75 μL) was injected intravenously after CLP surgery and Cp1 administration. Twenty-four hours later, the HSA in the bronchoalveolar lavage fluid (BALF) and plasma samples was quantified via a HAS ELISA Kit (Cusabio, Wuhan), and the lung permeability index was calculated as the ratio of the HAS in the BALF to that in the plasma.
The cecal ligation and puncture (CLP) model was established in male C57BL/6 mice (9-10 weeks old). Briefly, a midline laparotomy was performed to exteriorize the cecum under general anesthesia. The cecum was ligated at the distal three-quarters using sutures. Subsequently, a single through-and-through puncture was made in the ligated segment using a 22-gaμge needle, followed by small volume of fecal content was gentle extrusion. The cecum was then repositioned within abdominal cavity, and the laparotomy incision was closed in layers. All animals were administered 1 mL of sterile saline for postoperative fluid resuscitation. Sham-operated controls underwent identical surgical procedures without cecal ligation or puncture. In this work, mice received administration via intravenous injection 1 hour after CLP surgery. The animal mortality was determined by the presence of confirmed death. […] Blood samples were collected 24 hours after CLP-modeling for hematological analysis (Mindray BC-60R Vet) and biochemical analysis (Mindray BS-240 Vet, China), endothelial injury analysis (Njjcbio, Nanjing) and coagulation analysis (Legene, Beijing). Subsequently, mice were sacrificed to collect the main organs for morphological and pathological analysis.

PMNs = test: C5a-triggered chemotaxis assay, PMNs (IncuCyte); format: cell-based, human; settings: 10 ng to 1 μg per well, 24 h
Experimental: The chemotaxis assay in this study was monitored and quantified by the IncuCyte ZOOM® Live-Cell Imaging System. The y-axis label “total area normalized to initial area in each group” in Fig. 3k, m represent the ratio of the total cell area at each time point to the initial area (0 h) within the same field of view. A higher ratio indicates […] cell migration activity.
One hundred nanograms of human C5a protein (ACROBiosystems, Beijing, China) was preincubated with linear or cyclic peptides at the indicated concentrations (10 ng, 100 ng, or 1 μg) in 1640 complete culture medium for 30 min. PMNs isolated by flow cytometric sorting for chemotaxis assays were purchased from Oribiotech Co., Ltd. (Shanghai, China). A total of 1 × 10^4 cells were added to the upper chamber of 96-well cell chemotaxis plates (Sartorius, Germany) and allowed to migrate at 37 °C for 24 h. The chemotactic response of neutrophils toward C5a with or without C5a-blocking peptides was quantified and analyzed via an IncuCyte ZOOM® Live-Cell Imaging System (Sartorius, Germany). The chemotactic response of mouse neutrophils was assessed following the established protocol for PMNs.

CLP model mice [2] = test: cfDNA and neutrophil elastase in plasma of CLP mice; format: in vivo, mouse; settings: 100 μg/20 g, 24 h after CLP surgery, relative to Sham set as 0%
Experimental: To determine the levels of cfDNA and elastase in plasma, blood samples were collected, and plasma was prepared 24 h after CLP surgery. cfDNA was extracted via the VAHTS Serum/Plasma Circulating DNA Kit (Vazyme, Nanjing) and quantified via qPCR. Elastase was quantified via an NE ELISA Kit (Cusabio, Wuhan).

CLP model mice [3] = test: Routine blood test: neutrophils and monocytes in CLP model mice; format: in vivo, mouse; settings: 100 μg/20 g i.v.
Experimental: The cecal ligation and puncture (CLP) model was established in male C57BL/6 mice (9-10 weeks old). Briefly, a midline laparotomy was performed to exteriorize the cecum under general anesthesia. The cecum was ligated at the distal three-quarters using sutures. Subsequently, a single through-and-through puncture was made in the ligated segment using a 22-gaμge needle, followed by small volume of fecal content was gentle extrusion. The cecum was then repositioned within abdominal cavity, and the laparotomy incision was closed in layers. All animals were administered 1 mL of sterile saline for postoperative fluid resuscitation. Sham-operated controls underwent identical surgical procedures without cecal ligation or puncture. In this work, mice received administration via intravenous injection 1 hour after CLP surgery. The animal mortality was determined by the presence of confirmed death. […] Subsequently, mice were sacrificed to collect the main organs for morphological and pathological analysis.

CLP-induced septic mice [4] = test: Inflammatory factors and chemokines in plasma, Luminex, CLP mice; format: in vivo, mouse
Experimental: Twenty-four hours later, whole blood and PLF were collected under anesthesia. The plasma and PLF supernatants were further isolated via centrifugation (3000 × g, 10 min, 4 °C) and subjected to inflammatory factor and chemokine profiling via the Luminex® multiplex […] Biotechnologies, Shanghai, China). The percent inhibition was calculated relative to that of the sham group (set as 0%).

[5] = 100 μg/20 g, 24 h after CLP surgery

Structure (SMILES): CSCC[C@@H]1NC(=O)[C@@H]2CCCN2C(=O)[C@H](CCSC)NC(=O)[C@H](CO)NC(=O)[C@H](Cc2c[nH]cn2)NC(=O)CNC(=O)[C@H](CO)NC(=O)[C@H](Cc2ccccc2)NC(=O)[C@H](CCCNC(=N)N)NC(=O)[C@H](CCC(=O)O)NC(=O)[C@H](Cc2ccccc2)NC(=O)[C@H](C(C)C)NC1=O [Cp1] (cyclo(HSMPMVFERFSG))
- decrease of circulating E-selectin vs CLP group (CLP-induced septic mice [1]; 100 μg/20 g): 71%
- decrease of circulating PAI-1 vs CLP group (CLP-induced septic mice [1]; 100 μg/20 g): 93%
- decrease of circulating VCAM-1 vs CLP group (CLP-induced septic mice [1]; 100 μg/20 g): 100%
- decrease of Evans blue leakage (PLF/Serum) (CLP-induced septic mice [1]; vs untreated CLP group): 54%
- decrease of HAS leakage (BALF/Serum) (CLP-induced septic mice [1]; vs untreated CLP group): 83%
- reduction in lung wet-to-dry weight ratio (W/D ratio) (CLP-induced septic mice [1]; vs untreated CLP group): 85%
- suppression of C5a-driven recruitment of PMNs (PMNs): dose-dependently suppressed
- decrease of plasma neutrophil elastase (NE) (CLP model mice [2]; ELISA): 100%
- decrease of plasma cfDNA (CLP model mice [2]; qPCR): 68%
- increase of absolute monocyte count (delayed peak) vs sham group (CLP model mice [3]; 12 h): 69%
- reduction in absolute neutrophil count vs CLP group (CLP model mice [3]; 12 h): 63%
- reduction in absolute monocyte count vs the 4-h peak value in the CLP group (CLP model mice [3]; peak at 12 h): 38%
- decrease in plasma CCL2 level (CLP-induced septic mice [4]; [5]): 21.7 fold
- decrease in plasma CCL3 level (CLP-induced septic mice [4]; [5]): 81.9 fold
- decrease in plasma CCL4 level (CLP-induced septic mice [4]; [5]): 24.8 fold
- decrease in plasma CCL5 level (CLP-induced septic mice [4]; [5]): 18.6 fold
- decrease in plasma CCL7 level (CLP-induced septic mice [4]; [5]): 102.3 fold
- decrease in plasma CXCL1 level (CLP-induced septic mice [4]; [5]): 61.7 fold
- decrease in plasma CXCL5 level (CLP-induced septic mice [4]; [5]): 4.3 fold
- decrease in plasma IL-1β level vs CLP group (CLP-induced septic mice [4]; [5]): 94%
- decrease in plasma IL-6 level vs CLP group (CLP-induced septic mice [4]; [5]): 99%
- decrease in plasma TNF-α level vs CLP group (CLP-induced septic mice [4]; [5]): 86%
- reduction in plasma IL-1β level (CLP-induced septic mice [4]; 100 μg/20 g, Luminex (Fig. 4a)): 18.6 fold
- expression of inflammatory factors and chemokines in plasma, high dose (CLP-induced septic mice [4]; 300 μg of Cp1): effectively suppressed
- plasma IL-17A, IFN-γ, GM-CSF, and CX3CL1 levels (CLP-induced septic mice [4]; 24 h after CLP surgery): significantly decreased
- lowest effective dose with significant pharmacological activity (CLP-induced septic mice [4]; preliminary titrations): 100 μg
